Source: ChEMBL document CHEMBL1932937, “Inhibition of noroviruses by piperazine derivatives” (Bioorg Med Chem Lett, 2012)

How the values were obtained:
[1] = Cytotoxicity against human HG23 cells after 48 hrs; assay type: cell-based; settings: read-out: TD50
[2] = system: Norovirus; test: Antiviral activity against Norovirus infected in human HG23 cells assessed as inhibition of viral replication after 24 hrs; assay type: functional; settings: HG23, 24 h, read-out: ED50 (the source's name)
[3] = Therapeutic index, ratio of TD50 for HG23 cells to ED50 for Norovirus infected in human HG23 cells; assay type: cell-based; settings: read-out: Ratio TD50/ED50

| SMILES | EC50 [2] | CC50 at 48 h [1] | selectivity ratio [3] |
| --- | --- | --- | --- |
| O=C(Cc1ccc(Cl)cc1)N1CCN(Cc2cccc(Oc3ccccc3)c2)CC1 | > 20 µM | – | – |
| O=C(c1cn(Cc2cccc(F)c2)nn1)N1CCN(Cc2ccccc2)CC1 | > 20 µM | – | – |
| O=C(c1ccc(O)cc1)N1CCN(Cc2cccc(Oc3ccccc3)c2)CC1 | > 20 µM | – | – |
| Oc1cccc(CN2CCN(Cc3cccc(Oc4ccccc4)c3)CC2)c1 | > 20 µM | – | – |
| O=C1CC(C(=O)N2CCN(Cc3ccccc3)CC2)CN1Cc1ccccc1 (stereo not drawn) | > 20 µM | – | – |
| COC(=O)c1ccc(Cn2cc(C(=O)N3CCN(Cc4ccccc4)CC3)nn2)cc1 | > 20 µM | – | – |
| O=C(c1ccco1)N1CCN(Cc2ccccc2)CC1 | > 20 µM | – | – |
| O=C(c1cn(Cc2ccc(F)cc2)nn1)N1CCN(Cc2ccccc2)CC1 | > 20 µM | – | – |
| O=C1CC(C(=O)N2CCN(Cc3ccccc3)CC2)CN1Cc1ccco1 (stereo not drawn) | > 20 µM | – | – |
| O=C(c1cn(CSc2ccccc2)nn1)N1CCN(Cc2ccccc2)CC1 | > 20 µM | – | – |
| O=C(c1cccc(F)c1)N1CCN(Cc2ccccc2)CC1 | > 20 µM | – | – |
| COc1ccc(CC(=O)N2CCN(Cc3ccccc3)CC2)cc1 | > 20 µM | – | – |
| O=C(N1CCOCC1)N1CCN(Cc2ccccc2)CC1 | > 20 µM | – | – |
| O=C(c1ccc(Oc2ccccc2)cc1)N1CCN(Cc2ccccc2)CC1 | > 20 µM | – | – |
| O=C1CC(C(=O)N2CCN(Cc3ccccc3)CC2)CN1CCc1ccccc1 (stereo not drawn) | > 20 µM | – | – |
| CC(C)Oc1ccc(C(=O)N2CCN(Cc3cccc(Oc4ccccc4)c3)CC2)cc1 | > 20 µM | – | – |
| N#Cc1ccc(C(=O)N2CCN(Cc3cccc(Oc4ccccc4)c3)CC2)cc1 | > 20 µM | – | – |
| O=C(c1cccc(Cl)c1)N1CCN(Cc2ccccc2)CC1 | > 20 µM | – | – |

Stronger by EC50 [2], values ahead:

| EC50 [2] | SMILES | CC50 at 48 h [1] | selectivity ratio [3] |
| --- | --- | --- | --- |
| 8.5 µM | COc1ccc(Cn2cc(C(=O)N3CCN(Cc4ccccc4)CC3)nn2)cc1 | 62.5 µM | – |
| 8.5 µM | CC(C)Oc1ccc(CN2CCN(Cc3cccc(Oc4ccccc4)c3)CC2)cc1 | 31.5 µM | – |
| 7.8 µM | CCCOc1ccc(C(=O)N2CCN(Cc3ccccc3)CC2)cc1 | 95.3 µM | – |
| 5.5 µM | O=C(c1cccc(Oc2ccccc2)c1)N1CCN(Cc2cccc(Oc3ccccc3)c2)CC1 | 15.6 µM | – |
| 6.7 µM | CCCCS(=O)(=O)N1CCN(Cc2cccc(Oc3ccccc3)c2)CC1 | 121 µM | 18 |
| 7.2 µM | COc1ccc(CN2CC(C(=O)N3CCN(Cc4ccccc4)CC3)CC2=O)cc1 (stereo not drawn) | 155 µM | – |
| 4.5 µM | COc1ccc(C(=O)N2CCN(Cc3cccc(Oc4ccccc4)c3)CC2)cc1 | 25.4 µM | – |
| 5.6 µM | c1ccc(Oc2cccc(CN3CCN(Cc4cccc(Oc5ccccc5)c4)CC3)c2)cc1 | 75.4 µM | – |
| 2.8 µM | O=C(c1cccc(Oc2ccccc2)c1)N1CCN(Cc2ccccc2)CC1 | 11.4 µM | – |
| 12.5 µM | N#Cc1ccc(S(=O)(=O)N2CCN(Cc3cccc(Oc4ccccc4)c3)CC2)cc1 | 119 µM | – |
| 3.8 µM | O=C(c1ccc(Oc2ccccc2)cc1)N1CCN(Cc2cccc(Oc3ccccc3)c2)CC1 | 23.5 µM | – |
| 8.2 µM | O=C(c1ccccc1Oc1ccccc1)N1CCN(Cc2ccccc2)CC1 | 18.5 µM | – |
